EP4768487A1, “FUSED LACTAM RING COMPOUND AND USE THEREOF” (Chengdu Zenitar Biomedical Technology Co., Ltd., priority 2023, dated 2025)
pIC50: −log10 of the molar value.

Tests used:
PARP-5A = molecular target: T1, PARP-5A (Homo sapiens, UniProt O95271); test: biochemical
T1 sequence (O95271 1-1327): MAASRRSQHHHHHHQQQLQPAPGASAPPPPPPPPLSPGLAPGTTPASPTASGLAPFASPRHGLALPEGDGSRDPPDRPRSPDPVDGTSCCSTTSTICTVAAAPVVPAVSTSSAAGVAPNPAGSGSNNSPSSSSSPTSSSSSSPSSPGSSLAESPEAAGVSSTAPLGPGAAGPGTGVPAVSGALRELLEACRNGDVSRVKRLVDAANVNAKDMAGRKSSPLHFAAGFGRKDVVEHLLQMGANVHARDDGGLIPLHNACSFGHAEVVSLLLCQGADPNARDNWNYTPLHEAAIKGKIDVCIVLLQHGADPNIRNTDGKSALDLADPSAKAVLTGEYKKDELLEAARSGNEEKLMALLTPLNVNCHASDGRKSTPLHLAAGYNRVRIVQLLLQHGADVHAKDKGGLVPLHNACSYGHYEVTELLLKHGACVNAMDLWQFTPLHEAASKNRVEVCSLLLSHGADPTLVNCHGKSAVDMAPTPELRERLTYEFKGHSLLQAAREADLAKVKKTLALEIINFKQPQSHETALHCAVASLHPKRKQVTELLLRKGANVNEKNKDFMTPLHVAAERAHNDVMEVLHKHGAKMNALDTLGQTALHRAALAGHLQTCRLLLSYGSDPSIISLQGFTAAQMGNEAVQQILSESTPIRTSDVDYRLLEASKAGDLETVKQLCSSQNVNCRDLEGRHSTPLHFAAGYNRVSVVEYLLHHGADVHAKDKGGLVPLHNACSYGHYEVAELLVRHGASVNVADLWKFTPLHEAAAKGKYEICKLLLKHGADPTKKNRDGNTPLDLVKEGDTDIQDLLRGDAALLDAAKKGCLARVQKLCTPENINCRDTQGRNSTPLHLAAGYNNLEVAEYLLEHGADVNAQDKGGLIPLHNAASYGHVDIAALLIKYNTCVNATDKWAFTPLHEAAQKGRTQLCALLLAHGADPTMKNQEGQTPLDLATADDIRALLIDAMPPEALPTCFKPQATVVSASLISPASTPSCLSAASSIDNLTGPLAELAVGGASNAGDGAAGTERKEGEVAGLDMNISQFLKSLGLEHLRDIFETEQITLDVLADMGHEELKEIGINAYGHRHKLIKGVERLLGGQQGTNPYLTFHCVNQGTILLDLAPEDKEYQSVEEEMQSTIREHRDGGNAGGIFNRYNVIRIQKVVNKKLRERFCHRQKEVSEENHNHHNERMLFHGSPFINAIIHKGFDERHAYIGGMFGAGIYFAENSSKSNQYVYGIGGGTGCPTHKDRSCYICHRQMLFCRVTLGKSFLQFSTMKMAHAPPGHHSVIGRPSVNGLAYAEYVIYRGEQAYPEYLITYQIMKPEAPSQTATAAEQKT

PARP-12 = molecular target: T2, PARP-12 (Homo sapiens, UniProt Q9H0J9); test: Assay for enzymatic selectivity for PARP family: PARP-12
T2 sequence (Q9H0J9 1-701): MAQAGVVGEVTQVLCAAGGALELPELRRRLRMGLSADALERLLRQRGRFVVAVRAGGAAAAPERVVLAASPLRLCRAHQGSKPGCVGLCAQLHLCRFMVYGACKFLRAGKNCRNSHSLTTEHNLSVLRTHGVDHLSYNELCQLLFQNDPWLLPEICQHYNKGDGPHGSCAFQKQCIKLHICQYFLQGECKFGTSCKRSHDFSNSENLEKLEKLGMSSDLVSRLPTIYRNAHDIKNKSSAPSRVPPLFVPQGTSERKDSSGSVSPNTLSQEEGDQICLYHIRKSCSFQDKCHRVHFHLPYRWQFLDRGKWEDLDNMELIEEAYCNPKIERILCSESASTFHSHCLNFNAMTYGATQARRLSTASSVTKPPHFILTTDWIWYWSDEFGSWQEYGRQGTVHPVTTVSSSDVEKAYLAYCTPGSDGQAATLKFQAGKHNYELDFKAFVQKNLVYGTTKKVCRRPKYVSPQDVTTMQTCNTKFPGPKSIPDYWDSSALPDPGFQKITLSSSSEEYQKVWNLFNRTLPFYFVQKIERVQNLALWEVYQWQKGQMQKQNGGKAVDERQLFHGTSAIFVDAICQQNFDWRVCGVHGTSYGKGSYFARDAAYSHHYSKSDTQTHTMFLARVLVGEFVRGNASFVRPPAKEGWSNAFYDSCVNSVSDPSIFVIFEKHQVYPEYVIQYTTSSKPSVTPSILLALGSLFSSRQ

[1] = tested on: MDA-MB-436 breast cancer subcutaneous xenograft tumor model; test: In vivo pharmacodynamic study of compound 2 in MDA-MB-436 subcutaneous xenograft tumor model; details: oral once daily, 30 days
Procedure: Experimental process: Twenty-four female NOD/SCID mice were used in the experiment. […] All groups were subjected to oral administration once daily. Meanwhile, the mice were weighed every 2 days, and the length and width of the tumors were measured with a vernier caliper. After 30 days of administration, the tumor-bearing mice were anesthetized and sacrificed. The tumor tissues were dissected, weighed, and photographed, and the tumor growth inhibition rates were calculated.

PARP-7 = molecular target: T3, PARP-7 (Homo sapiens, UniProt Q7Z3E1); test: Assay for enzymatic selectivity for PARP family: PARP-7
T3 sequence (Q7Z3E1 1-657): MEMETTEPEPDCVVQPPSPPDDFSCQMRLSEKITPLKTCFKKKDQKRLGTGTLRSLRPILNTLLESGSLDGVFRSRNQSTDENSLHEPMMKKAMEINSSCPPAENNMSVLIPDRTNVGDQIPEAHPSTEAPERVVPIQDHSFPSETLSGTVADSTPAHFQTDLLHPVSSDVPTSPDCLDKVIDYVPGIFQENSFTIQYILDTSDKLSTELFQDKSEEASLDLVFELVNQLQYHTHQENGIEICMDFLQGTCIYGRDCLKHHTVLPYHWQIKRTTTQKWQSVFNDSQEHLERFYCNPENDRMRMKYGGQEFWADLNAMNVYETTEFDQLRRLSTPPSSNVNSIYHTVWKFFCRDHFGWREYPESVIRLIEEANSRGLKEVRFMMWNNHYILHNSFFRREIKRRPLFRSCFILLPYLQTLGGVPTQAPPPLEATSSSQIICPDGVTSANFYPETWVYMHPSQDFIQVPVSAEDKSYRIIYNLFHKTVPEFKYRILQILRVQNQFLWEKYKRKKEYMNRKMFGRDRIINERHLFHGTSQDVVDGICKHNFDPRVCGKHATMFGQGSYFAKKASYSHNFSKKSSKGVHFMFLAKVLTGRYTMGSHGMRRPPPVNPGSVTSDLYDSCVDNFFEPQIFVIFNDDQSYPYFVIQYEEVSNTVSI

With CCc1cc2c([nH]c1=O)CC(CN1CCN(c3ccc(C(=O)NC)nc3F)CC1)OC2 (stereo not drawn) [Compound 2, 5-(4-((3-Ethyl-2-oxo-1,5,7,8-tetrahydro-2H-pyrano[4,3-b]pyridin-7-yl)methyl)piperazin-1-yl)-6-fluoro-N-methyl picolinamide] as the molecule, how does the pIC50 (PARP-5A) read?
Its pIC50 is 6.01.

And the pIC50 (PARP-12)?
Its pIC50 is 5.70.

What about the “tumor growth inhibition rate” value ([1]; 1 mg/kg) of the same molecule?
The value was 92.61%.

What about the “tumor growth inhibition rate” value ([1]; 3 mg/kg) of the same molecule?
The value was 95.74%.

And the “tumor inhibitory effect compared with the reference drug Olaparib 100 mg/kg group (in words)” value ([1]; 3 mg/kg)?
The value was “significantly superior”.

And the pIC50 (PARP-7)?
The pIC50 was less than 5.00.

With CNC(=O)c1ccc(N2CCN(C[C@H]3CCc4nc(C)c(=O)[nH]c4C3)CC2)c(F)n1 [Example 45, (S)-6-Fluoro-N-methyl-5-(4-((2-methyl-3-oxo-3,4,5,6,7,8-hexahydroquinoxaline-6-yl)methyl)piperazin-1-yl)picolinamide] as the molecule, how does the pIC50 (PARP-5A) read?
The pIC50 was 5.71.

What about the pIC50 (PARP-12) of the same molecule?
The pIC50 was 6.06.

What about the pIC50 (PARP-7) of the same molecule?
The pIC50 was 5.22.
